Measurements taken from publication PMC11851464, “Development of a Spectrophotometric Assay for the Cysteine Desulfurase from Staphylococcus aureus” (Antibiotics, 2025).

How the values were obtained:
[1] = molecular target: T1, cysteine desulfurase SufS (SaSufS) (Staphylococcus aureus, UniProt A0A0H2XHJ5); test: spectrophotometric […] nm assay after […] h incubation; UV-Vis of PLP adduct; assay type: biochemical
[2] = molecular target: T1, cysteine desulfurase SufS (SaSufS); test: spectrophotometric […] nm assay after […] h incubation; Ala-NDA assay (IC50 […]); UV-Vis of PLP adduct; assay type: biochemical

T1 sequence (A0A0H2XHJ5 1-413): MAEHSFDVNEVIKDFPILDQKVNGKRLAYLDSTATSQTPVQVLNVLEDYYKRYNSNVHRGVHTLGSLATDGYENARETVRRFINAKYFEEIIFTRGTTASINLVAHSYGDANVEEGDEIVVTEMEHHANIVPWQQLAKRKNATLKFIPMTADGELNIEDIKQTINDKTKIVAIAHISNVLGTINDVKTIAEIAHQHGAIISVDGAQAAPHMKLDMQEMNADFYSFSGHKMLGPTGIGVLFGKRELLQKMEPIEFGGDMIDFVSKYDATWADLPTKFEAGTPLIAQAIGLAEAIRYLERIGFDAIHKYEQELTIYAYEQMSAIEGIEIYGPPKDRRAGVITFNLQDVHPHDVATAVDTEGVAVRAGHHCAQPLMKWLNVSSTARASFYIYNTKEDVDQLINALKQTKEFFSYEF

SMILES	IC50 [1] [µM]	IC50 [2] [µM]
N[C@@H]1CON=C1O [DCS, D-cycloserine]	2170 ± 920	
N[C@H]1CONC1=O [LCS, L-cycloserine]		62 ± 23
